Format in all cases: biochemical
The target of one assay is T1, G9a (Homo sapiens, UniProt Q96KQ7).
T1 construct: G9a (913-1913)
T1 sequence (Q96KQ7 913-1193 limits assumed): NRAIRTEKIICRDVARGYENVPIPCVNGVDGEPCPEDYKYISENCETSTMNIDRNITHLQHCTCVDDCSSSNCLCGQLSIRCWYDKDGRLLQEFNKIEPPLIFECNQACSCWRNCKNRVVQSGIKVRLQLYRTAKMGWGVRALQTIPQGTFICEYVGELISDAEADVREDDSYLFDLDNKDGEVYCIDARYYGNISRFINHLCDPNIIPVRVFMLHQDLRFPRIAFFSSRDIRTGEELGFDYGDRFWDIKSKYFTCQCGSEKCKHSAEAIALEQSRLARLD
The assay is described as follows: PMT filter-paper methylation assay, G9a. As to conditions: G9a (913-1913) 20 nM final, H3 (1-21 aa), 1 h.

The target in a further assay is T2, GLP1 (Homo sapiens, UniProt Q9H9B1).
T2 construct: GLP1 (951-1235)
T2 sequence (Q9H9B1 982-1266): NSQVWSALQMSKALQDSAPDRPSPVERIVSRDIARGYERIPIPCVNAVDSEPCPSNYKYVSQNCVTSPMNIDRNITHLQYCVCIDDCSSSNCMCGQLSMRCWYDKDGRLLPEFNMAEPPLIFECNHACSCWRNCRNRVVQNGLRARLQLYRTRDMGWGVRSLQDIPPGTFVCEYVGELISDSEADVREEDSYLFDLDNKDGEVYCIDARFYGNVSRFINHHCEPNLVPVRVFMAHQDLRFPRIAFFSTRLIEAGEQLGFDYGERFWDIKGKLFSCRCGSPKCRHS
The assay is described as follows: PMT filter-paper methylation assay, GLP1. As to conditions: GLP1 (951-1235) 10 nM final, H3 (1-21 aa), 1 h. The method, then: (§1) Methylation Reaction. The 20 μL methylation reaction was carried out at ambient temperature using two mixtures: A. 10 μl of enzyme mixture in the assay buffer containing 50 mM Hepes (pH=8.0), 0.005% Tween-20, 5 μg/ml BSA and 1 mM TCEP; B. 10 μl of a mixture of 1.5 μM, 0.15 μCi [^3H-Me]-SAM cofactor and 3 μM of the corresponding peptide substrate in the same assay buffer. After A and B were mixed for a designated time period, the reaction mixture was examined with our filter-paper assay.
(§2) Filter-paper Assay. This assay relies on Whatman P-81 filter paper, which binds peptides but not SAM. Protein Methyl Transferases (PMTs) transfer ^3H-Me of [^3H-Me]-SAM to peptide substrates and the resultant ^3H-methylated, filter-paper-bound peptide is quantified with a scintillation counter. […] The radioactivity was quantified by a Beckman LS6000IC liquid scintillation counter.
(§3) Dose-response Curves and IC50. […] After incubating the reaction mixture for the respective reaction time, the conversion was quantified with the filter paper assay as described above. The inhibition was expressed as the percentage between the high control (no inhibition) and the low control (no enzyme) as follows: Percentage Inhibition=[(high control−reading)/(high control−low control)]×100%. […]

The next assay concerns the target T3, SET7/9 (Homo sapiens, UniProt Q8WTS6).
T3 construct: SET7/9 Full-length
T3 sequence (Q8WTS6 1-366): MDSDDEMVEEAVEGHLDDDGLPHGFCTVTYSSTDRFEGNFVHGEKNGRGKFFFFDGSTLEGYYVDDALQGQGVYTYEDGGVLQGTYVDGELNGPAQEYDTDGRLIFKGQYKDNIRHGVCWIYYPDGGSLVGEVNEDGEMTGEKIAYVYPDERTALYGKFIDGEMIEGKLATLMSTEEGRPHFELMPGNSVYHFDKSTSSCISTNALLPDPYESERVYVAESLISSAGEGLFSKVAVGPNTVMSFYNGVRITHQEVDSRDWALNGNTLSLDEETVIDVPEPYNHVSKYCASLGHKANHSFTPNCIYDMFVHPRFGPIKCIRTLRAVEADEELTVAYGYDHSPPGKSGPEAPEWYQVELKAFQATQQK
The assay is described as follows: PMT filter-paper methylation assay, SET7/9. As to conditions: SET7/9 full-length 150 nM final, H3 (1-21 aa), 3 h. The method, then:
as §1, §2, §3

In the next assay the target is T4, SET8 (Homo sapiens, UniProt Q9NQR1).
T4 construct: SET8 (191-352)
T4 sequence (Q9NQR1 191-352 isoform Q9NQR1-2): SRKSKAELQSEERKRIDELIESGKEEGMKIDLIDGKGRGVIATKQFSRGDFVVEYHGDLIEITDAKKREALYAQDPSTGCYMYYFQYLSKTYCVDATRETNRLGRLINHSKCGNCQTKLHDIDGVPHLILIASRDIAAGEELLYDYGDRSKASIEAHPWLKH
The assay is described as follows: PMT filter-paper methylation assay, SET8. As to conditions: SET8 (191-352) 1000 nM final, H4 (10-30 aa), 8 h. The method, then:
as §1, §2, §3

The target in the next assay is T5, SETD2 (Homo sapiens, UniProt Q9BYW2).
T5 construct: SETD2 (1347-1711)
T5 sequence (Q9BYW2 1347-1711): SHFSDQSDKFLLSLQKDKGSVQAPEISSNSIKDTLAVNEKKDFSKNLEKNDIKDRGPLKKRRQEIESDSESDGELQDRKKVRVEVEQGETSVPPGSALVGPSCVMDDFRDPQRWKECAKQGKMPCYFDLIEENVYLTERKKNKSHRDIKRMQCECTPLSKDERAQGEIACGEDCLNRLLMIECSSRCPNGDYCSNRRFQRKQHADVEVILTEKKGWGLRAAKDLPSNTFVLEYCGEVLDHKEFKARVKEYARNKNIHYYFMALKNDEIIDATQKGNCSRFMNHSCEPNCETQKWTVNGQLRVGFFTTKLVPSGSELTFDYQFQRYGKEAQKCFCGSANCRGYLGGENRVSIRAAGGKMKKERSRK
The assay is described as follows: PMT filter-paper methylation assay, SETD2. As to conditions: SETD2 (1347-1711) 250 nM final, H3 (20-50 aa), 4 h. As to the method: as §1, §2, §3

The target of the next assay is T6, PRMT1 (Homo sapiens, UniProt Q99873).
T6 construct: PRMT1 (10-352)
The assay is described as follows: PMT filter-paper methylation assay, PRMT1. As to conditions: PRMT1 (10-352), 100 nm, RGG substrate, 1.5 h.

In the next assay the target is T7, PRMT3 (Homo sapiens, UniProt O60678).
T7 construct: PRMT3 (211-531)
Kind of assay: PMT filter-paper methylation assay, PRMT3. As to conditions: PRMT3 (211-531) 100 nM final, RGG, 3 h.

Another assay deals with T8, SUV39H2 (Homo sapiens, UniProt Q9H5I1).
T8 construct: SUV39H2 (112-410)
Kind of assay: PMT filter-paper methylation assay, SUV39H2. As to conditions: SUV39H2 (112-410) 5 nM final, H3 (1-21 aa), 4 h.

The target in another assay is T9, CARM1 (Homo sapiens, UniProt Q86X55).
T9 construct: CARM1 (19-608)
T9 sequence (Q86X55 19-608): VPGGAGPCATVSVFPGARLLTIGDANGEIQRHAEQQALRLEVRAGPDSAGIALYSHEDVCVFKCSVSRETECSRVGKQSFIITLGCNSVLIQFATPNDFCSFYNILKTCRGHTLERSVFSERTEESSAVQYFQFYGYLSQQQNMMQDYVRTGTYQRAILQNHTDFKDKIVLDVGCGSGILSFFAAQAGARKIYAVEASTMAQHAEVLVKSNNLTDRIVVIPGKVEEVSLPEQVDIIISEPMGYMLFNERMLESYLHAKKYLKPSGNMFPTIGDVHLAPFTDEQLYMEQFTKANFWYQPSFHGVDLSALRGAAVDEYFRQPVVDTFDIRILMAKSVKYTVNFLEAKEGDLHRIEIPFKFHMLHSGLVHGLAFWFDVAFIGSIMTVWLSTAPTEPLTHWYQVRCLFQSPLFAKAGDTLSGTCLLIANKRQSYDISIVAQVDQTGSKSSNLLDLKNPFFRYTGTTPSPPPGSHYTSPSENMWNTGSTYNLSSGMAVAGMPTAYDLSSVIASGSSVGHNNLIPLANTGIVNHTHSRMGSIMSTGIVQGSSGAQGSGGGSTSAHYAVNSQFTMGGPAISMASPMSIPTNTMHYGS
Kind of assay: PMT filter-paper methylation assay, CARM1. As to conditions: H3 (1-40 aa), 7 h.

Another assay deals with T10, SMYD2-FL (Homo sapiens, UniProt Q9NRG4).
T10 construct: SMYD2 Full-length
Kind of assay: PMT filter-paper methylation assay, SMYD2. As to conditions: SMYD2 full-length 50 nM final, p53 (360-393 aa), 10 h. The method, then: as §1, §2, §3

The target in another assay is T11, SMYD3 (Homo sapiens, UniProt Q9H7B4).
T11 sequence (Q9H7B4 1-428): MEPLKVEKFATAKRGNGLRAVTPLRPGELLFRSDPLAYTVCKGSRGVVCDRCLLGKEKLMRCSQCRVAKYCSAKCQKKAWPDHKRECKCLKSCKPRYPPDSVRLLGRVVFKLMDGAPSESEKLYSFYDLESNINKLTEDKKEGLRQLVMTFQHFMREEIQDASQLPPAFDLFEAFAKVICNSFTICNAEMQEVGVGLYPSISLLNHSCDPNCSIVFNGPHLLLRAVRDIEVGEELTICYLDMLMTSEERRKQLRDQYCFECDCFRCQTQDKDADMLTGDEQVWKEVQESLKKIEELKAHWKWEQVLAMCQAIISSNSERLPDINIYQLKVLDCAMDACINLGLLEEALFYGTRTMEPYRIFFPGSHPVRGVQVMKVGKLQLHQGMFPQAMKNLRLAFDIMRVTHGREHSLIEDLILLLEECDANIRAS
Kind of assay: PMT filter-paper methylation assay, SMYD3. As to conditions: SMYD3 125 nM final, MAP3K2 (1-350 aa), 2 h. As to the method: as §1, §2, §3

The target of a further assay is PRMT8 (Homo sapiens, UniProt Q9NR22). Kind of assay: PMT filter-paper methylation assay, PRMT8. As to the method: as §1, §2, §3
The target in a further assay is MLL1 (Homo sapiens, UniProt Q03164). Kind of assay: PMT filter-paper methylation assay, MLL1. As to the method: as §1, §2, §3

Usually IC50 stands for the midpoint of a concentration-inhibition curve.

Where two headings read alike, the source gives them in different places.

T10 sequence (Q9NRG4 whole entry): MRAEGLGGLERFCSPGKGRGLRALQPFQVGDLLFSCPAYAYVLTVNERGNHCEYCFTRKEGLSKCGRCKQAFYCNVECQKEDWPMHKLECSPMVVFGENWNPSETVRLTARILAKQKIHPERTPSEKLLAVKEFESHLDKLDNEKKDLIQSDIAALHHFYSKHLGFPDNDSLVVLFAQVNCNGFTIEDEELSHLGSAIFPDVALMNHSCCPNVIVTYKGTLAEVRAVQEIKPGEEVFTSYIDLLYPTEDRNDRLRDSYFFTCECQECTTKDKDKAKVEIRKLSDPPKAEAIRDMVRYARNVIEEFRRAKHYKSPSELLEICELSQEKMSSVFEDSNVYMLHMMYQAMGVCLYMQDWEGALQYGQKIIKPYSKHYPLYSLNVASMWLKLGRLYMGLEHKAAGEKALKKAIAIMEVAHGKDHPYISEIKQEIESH
T7 sequence (O60678 211-531): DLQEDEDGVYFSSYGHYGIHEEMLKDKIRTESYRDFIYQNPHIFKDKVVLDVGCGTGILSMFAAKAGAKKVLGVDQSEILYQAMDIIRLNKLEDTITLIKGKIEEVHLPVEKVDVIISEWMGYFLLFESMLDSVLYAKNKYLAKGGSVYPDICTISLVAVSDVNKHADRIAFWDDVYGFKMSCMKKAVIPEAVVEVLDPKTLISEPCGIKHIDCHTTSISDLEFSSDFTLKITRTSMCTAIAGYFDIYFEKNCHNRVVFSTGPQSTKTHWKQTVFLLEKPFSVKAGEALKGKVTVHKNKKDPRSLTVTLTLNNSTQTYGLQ
PRMT8, sequence (Q9NR22 whole entry): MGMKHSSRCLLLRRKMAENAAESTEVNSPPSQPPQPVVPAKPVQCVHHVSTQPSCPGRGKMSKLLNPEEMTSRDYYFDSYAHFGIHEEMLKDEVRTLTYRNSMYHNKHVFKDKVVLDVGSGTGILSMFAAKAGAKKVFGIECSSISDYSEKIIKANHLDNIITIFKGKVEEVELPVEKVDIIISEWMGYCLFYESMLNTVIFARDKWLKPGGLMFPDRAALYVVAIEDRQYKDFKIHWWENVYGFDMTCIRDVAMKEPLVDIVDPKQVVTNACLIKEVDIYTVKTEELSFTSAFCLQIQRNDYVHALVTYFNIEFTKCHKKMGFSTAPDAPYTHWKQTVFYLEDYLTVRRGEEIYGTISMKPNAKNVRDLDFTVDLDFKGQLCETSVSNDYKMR
T6 sequence (Q99873 10-352 isoform Q99873-3): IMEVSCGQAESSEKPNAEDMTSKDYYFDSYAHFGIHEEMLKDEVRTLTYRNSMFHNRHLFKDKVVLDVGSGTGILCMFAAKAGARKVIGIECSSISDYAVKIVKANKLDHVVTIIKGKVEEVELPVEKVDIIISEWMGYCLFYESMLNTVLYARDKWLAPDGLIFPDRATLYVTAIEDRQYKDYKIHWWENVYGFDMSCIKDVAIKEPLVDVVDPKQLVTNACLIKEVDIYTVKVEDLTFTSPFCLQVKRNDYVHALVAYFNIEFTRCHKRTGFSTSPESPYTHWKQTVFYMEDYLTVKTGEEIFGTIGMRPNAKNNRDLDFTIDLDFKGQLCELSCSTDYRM
T8 sequence (Q9H5I1 112-410): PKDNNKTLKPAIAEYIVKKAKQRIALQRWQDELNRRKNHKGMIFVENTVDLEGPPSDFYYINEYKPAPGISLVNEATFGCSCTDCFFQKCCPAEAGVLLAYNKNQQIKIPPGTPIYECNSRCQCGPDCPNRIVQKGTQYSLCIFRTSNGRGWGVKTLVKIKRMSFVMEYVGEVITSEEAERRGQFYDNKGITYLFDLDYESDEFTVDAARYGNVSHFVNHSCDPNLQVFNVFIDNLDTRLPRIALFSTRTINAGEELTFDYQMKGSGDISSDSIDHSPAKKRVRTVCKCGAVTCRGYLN

On to `CC(C)(C)c1ccc(NC(=O)NCCC[C@H](CNCc2ccccc2)C[C@H]2O[C@@H](n3cnc4c(N)ncnc43)C(O)C2O)cc1` (some centres unmarked) [Example 104], for which the IC50 against G9a is above 50 µM; against GLP1, above 50 µM; on SET7/9, above 50 µM; against SET8 it was above 50 µM; against SETD2 it was 45 µM; against PRMT1, above 50 µM. The IC50 against PRMT3 is above 50 µM; at SUV39H2, above 50 µM; at CARM1 (CARM1 (19-608)^a 300 nM final enzyme, read-out: IC50 CARM1^a), 0.3 µM; on CARM1 (CARM1 (19-608)^b 25 nM final enzyme, read-out: IC50 CARM1^b), 0.05 µM; against SMYD2-FL, above 50 µM; against SMYD3, above 50 µM. Further, the values for the IC50 on PRMT8 and against MLL1 were above 50 µM and 4.5 µM, respectively.

These data come from patent publication US20180305391A1, “COFACTOR ANALOGS AS […] INHIBITORS FOR TREATING CANCER” (MEMORIAL SLOAN-KETTERING CANCER CENTER, priority 2015, published 2018).
